Measured values from ChEMBL document CHEMBL4041540, “In silico selection and cell-based characterization of selective and bioactive compounds for androgen-dependent prostate cancer cell” (Bioorg Med Chem Lett, 2017).
Activity calls are given as the source filed them. No cut-off for these calls is given here.

Assays:
PC-3 = experiment: Growth inhibition of human PC3 cells at 100 uM after 72 hrs by MTT assay relative to control; format: functional; details: PC-3, 72 h, read-out: GI
LNCaP [1] = experiment: Growth inhibition of human LNCAP cells at 100 uM after 72 hrs by MTT assay relative to control; format: functional; details: read-out: GI
[2] = target: T1, Androgen receptor (Homo sapiens) (UniProt P10275); experiment: Inhibition of AR signaling pathway in testosterone-stimulated human LNCAP cells assessed as cell growth inhibition at 100 uM after 6 days by MTT assay relative to control
T1 sequence (whole entry): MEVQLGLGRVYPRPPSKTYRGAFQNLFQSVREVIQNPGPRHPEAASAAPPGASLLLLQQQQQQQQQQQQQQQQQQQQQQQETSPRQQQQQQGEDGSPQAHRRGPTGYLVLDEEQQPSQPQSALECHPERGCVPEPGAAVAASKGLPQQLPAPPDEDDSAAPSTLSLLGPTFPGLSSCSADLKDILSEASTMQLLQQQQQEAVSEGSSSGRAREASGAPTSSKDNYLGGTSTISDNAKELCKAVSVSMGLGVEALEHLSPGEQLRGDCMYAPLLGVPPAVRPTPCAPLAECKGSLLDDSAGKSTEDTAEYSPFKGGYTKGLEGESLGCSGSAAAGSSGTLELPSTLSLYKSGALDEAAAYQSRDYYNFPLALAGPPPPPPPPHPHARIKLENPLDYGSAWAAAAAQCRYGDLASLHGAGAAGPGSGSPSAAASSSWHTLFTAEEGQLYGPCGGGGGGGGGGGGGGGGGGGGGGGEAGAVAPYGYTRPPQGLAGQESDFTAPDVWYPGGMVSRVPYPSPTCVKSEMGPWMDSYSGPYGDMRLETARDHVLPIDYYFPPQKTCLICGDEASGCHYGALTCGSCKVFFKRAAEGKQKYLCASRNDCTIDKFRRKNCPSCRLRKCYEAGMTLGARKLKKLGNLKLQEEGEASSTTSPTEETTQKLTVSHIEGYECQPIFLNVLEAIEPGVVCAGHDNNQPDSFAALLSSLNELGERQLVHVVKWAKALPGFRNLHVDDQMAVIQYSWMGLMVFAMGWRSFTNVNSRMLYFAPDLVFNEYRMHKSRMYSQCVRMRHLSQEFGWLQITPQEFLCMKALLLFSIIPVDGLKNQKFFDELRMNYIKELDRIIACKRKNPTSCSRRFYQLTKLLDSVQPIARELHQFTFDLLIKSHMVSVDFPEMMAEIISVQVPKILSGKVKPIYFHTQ

DU-145 = experiment: Growth inhibition of human DU145 cells at 100 uM after 72 hrs by MTT assay relative to control; format: functional; details: DU-145, 72 h, read-out: GI
[3] = Growth inhibition of Balb/c mouse 3T3 clone A31 cells after 72 hrs by MTT assay; format: cell-based; details: Balb/c 3T3 clone A31 cells
LNCaP [4] = experiment: Cell cycle arrest in testosterone-stimulated human LNCAP cells assessed as G1 phase accumulation at 8 uM after 5 days (reference value: 63.4%); format: functional
LNCaP [5] = experiment: Cell cycle arrest in testosterone-stimulated human LNCAP cells assessed as S phase accumulation at 8 uM after 5 days (reference value: 15.1%); format: functional
LNCaP [6] = experiment: Cell cycle arrest in testosterone-stimulated human LNCAP cells assessed as G2/M phase accumulation at 8 uM after 5 days (reference value: 13.3%); format: functional
[7] = Selectivity index, ratio of GI50 for Balb/c mouse 3T3 clone A31 cells to GI50 for AR signaling pathway in testosterone-stimulated human LNCAP cells assessed as cell growth inhibition
LNCaP [8] = experiment: Cell cycle arrest in testosterone-stimulated human LNCAP cells assessed as S phase accumulation at 8 uM after 3 days (reference value: 14.1%); format: functional
[9] = Growth inhibition of Balb/c mouse 3T3 clone A31 cells at 250 uM after 72 hrs by MTT assay relative to control; format: cell-based; details: Balb/c 3T3 clone A31 cells, read-out: GI
[10] = target: T1, Androgen receptor (Homo sapiens)
Description: Inhibition of AR signaling pathway in testosterone-stimulated human LNCAP cells assessed as cell growth inhibition by flow cytometry

LNCaP [11] = experiment: Cell cycle arrest in testosterone-stimulated human LNCAP cells assessed as G0 phase accumulation at 8 uM after 5 days (reference value: 8.2%); format: functional
[12] = target: T1, Androgen receptor (Homo sapiens); remark: listed apart in the source
Description: Inhibition of AR signaling pathway in testosterone-stimulated human LNCAP cells assessed as cell growth inhibition after 6 days by MTT assay

LNCaP [13] = experiment: Cell cycle arrest in testosterone-stimulated human LNCAP cells assessed as G1 phase accumulation at 8 uM after 3 days (reference value: 73.8%); format: functional
LNCaP [14] = experiment: Cell cycle arrest in testosterone-stimulated human LNCAP cells assessed as G2/M phase accumulation at 8 uM after 3 days (reference value: 8.2%); format: functional
LNCaP [15] = experiment: Cell cycle arrest in testosterone-stimulated human LNCAP cells assessed as G0 phase accumulation at 8 uM after 3 days (reference value: 3.9%); format: functional

inhibition [2]	SMILES	inhibition of growth at 100 µM (PC-3) [%]	inhibition of growth at 100 µM (LNCaP [1]) [%]	inhibition of growth at 100 µM (DU-145) [%]	further results
inactive	CC(OC(=O)Cc1cc2c(s1)CCC2)C(=O)Nc1ccc(C#N)cc1 (stereo unspecified)	≤ 50	≤ 50	≤ 50	–
inactive	N#Cc1ccc(NC(=O)COC(=O)Cc2ccc(Cl)c(Cl)c2)cc1	≤ 50	≤ 50	≤ 50	–
inactive	N#Cc1ccc(CN2CCN(C(=O)C3CCCC3)CC2)c(F)c1	≤ 50	≤ 50	≤ 50	–
inactive	N#Cc1ccc(NC(=O)CSc2nc3ccc([N+](=O)[O-])cc3s2)cc1	≤ 50	≤ 50	≤ 50	–
inactive	O=C(CSc1ncnc2c1[nH]c1ccccc12)Nc1cccc(F)c1	≤ 50	≤ 50	≤ 50	–
inactive	N#Cc1ccc(C(=O)N2CCN(c3ccc(F)cc3)CC2)c(F)c1	≤ 50	≤ 50	≤ 50	–
inactive	O=C(CSc1ncnc2c1[nH]c1ccccc12)Nc1ccc(F)cc1	≤ 50	≤ 50	≤ 50	–
Active	Cc1ccc2[nH]c3c(SCC(=O)Nc4cccc(C#N)c4)ncnc3c2c1	≤ 50	≤ 50	≤ 50	Activity (LNCaP [4]): 68.7%; Activity (LNCaP [5]): 15.7%; Activity (LNCaP [6]): 9.3%; RatioGI50 [7]: >11; Activity (LNCaP [8]): 18.4%; inhibition at 72 h, 250 µM [9]: 20%; GI50 [10]: 22.6 µM; Activity (LNCaP [11]): 6.3%; GI50 [12]: 22.4 µM; Activity (LNCaP [13]): 64.6%; Activity (LNCaP [14]): 15.1%; Activity (LNCaP [15]): 1.9%

The next lines start with the compound.

SMILES	inhibition [2]	inhibition of growth at 100 µM (PC-3) [%]	inhibition of growth at 100 µM (LNCaP [1]) [%]	inhibition of growth at 100 µM (DU-145) [%]	further results
N#Cc1ccc(CN2CCN(C(=O)Cn3ccc(=O)[nH]c3=O)CC2)cc1	inactive	≤ 50	≤ 50	≤ 50	–
CC1CCCN(C(=O)C2CCN(c3ccc(C#N)cc3F)CC2)C1 (stereo unspecified)	inactive	≤ 50	≤ 50	≤ 50	–
CNC(=O)c1ccc(N2C(=S)N(c3ccc(C#N)c(C(F)(F)F)c3)C(=O)C2(C)C)cc1F [ENZALUTAMIDE]	–	–	–	–	GI50 at 72 h [3]: 27.5 µM
Cc1cc(NC(=O)N2CCN(c3ccc(C#N)cc3F)CC2)on1	inactive	≤ 50	≤ 50	≤ 50	–
N#Cc1ccc(NC(=O)COC(=O)Cc2ccc(F)cc2)cc1Cl	inactive	≤ 50	≤ 50	≤ 50	–
CC(C(=O)Nc1ccc(C#N)cc1)N1CCN(c2ccc(O)cc2)CC1 (stereo unspecified)	inactive	≤ 50	≤ 50	≤ 50	–
N#Cc1ccc(CN2CCN(C(=O)c3ccc(F)c(F)c3)CC2)cc1	inactive	≤ 50	≤ 50	≤ 50	–
N#Cc1cc(F)c(N2CCN(C(=O)c3ccsc3)CC2)c(F)c1	inactive	≤ 50	≤ 50	≤ 50	–
N#Cc1ccc(N2CCN(C(=O)c3ccc(=O)[nH]c3)CC2)c(F)c1	inactive	≤ 50	≤ 50	≤ 50	–
N#Cc1ccc(NC(=O)COC(=O)Cc2cccs2)cc1Cl	Active	≤ 50	≤ 50	≤ 50	–
